We go through one compound from US4442218A, “Method of measuring degree of partitioning” (Corning Glass Works, priority 1981, dated 1984).

Assay [1] addresses thyroxine antibodies immobilized within the pores of stainless steel cylindrical monoliths. The assay is described as follows: Scatchard plot evaluation of binding constant, stainless steel cylindrical monoliths. Set-up: species or system rabbit. To be noted: ambient temperature, overnight, shaking, cylindrical monolith, read-out: binding constant K (slope of Scatchard plot) (converted). The method, then: The treated monoliths were combined with 3.0 ml of a stock solution (prepared as described below) of an immunoglobulin-enriched fraction of an antithyroxine antiserum per 100 g of monoliths dissolved in sufficient 0.1 M phosphate buffer solution (PBS) at pH 7.0 to insure complete submersion of the monoliths (the 3.0 ml of stock solution was equivalent to 0.3 mg of protein per monolith). A water aspirator vacuum was applied to the resulting mixture for a time sufficient to insure complete penetration of the liquid phase into the pores of the monoliths. The mixture then was maintained at 4° on a reciprocating shake table (Eberbach Corporation, Ann Arbor, Mich.) for 48 hours. […] If the bound and free antigen can be separated and the quantity bound measured, then the value of K can be determined by constructing a Scatchard plot; see, e.g., E. D. Day, "Advanced Immunochemistry", Williams & Wilkens Co., Baltimore, Md., 1972, pp. 118ff. Such a procedure is particularly suited to solid-phase immunoassay systems since the bound antigen is readily separated from the free or unbound antigen. The value of K for the monolith-thyroxine antibody complex was determined as follows. […] (3) Each tube was counted for one minute to obtain total counts. […]

Assay [2] has as its target thyroxine antibodies immobilized within the pores of stainless steel disc-shaped monoliths. In words: Scatchard plot evaluation of binding constant, stainless steel disc-shaped monoliths. Set-up: species or system rabbit. To be noted: total liquid volume 0.5 ml; disc-shaped monolith, 0.5 mg protein per monolith; read-out: binding constant K (Scatchard plot). The method, then: The procedure of Example 1 was repeated, except that the cylindrical monoliths were replaced with 316 stainless steel discs 8 mm in diameter and 1.6 mm in thickness and the amount of protein per monolith was increased to 0.5 mg. Mean pore diameters were about 40μ and the total surface area of each disc was about 60 cm^2. In a random sampling of 10 discs, the average weight per disc was 0.330 g with a coefficient of variation of 0.3 percent. The discs were obtained as Stock No. S-2298 from Sintered Specialties, Janesville, Wisc. The Scatchard plot data were obtained using a total liquid volume of 0.5 ml per tube and serial dilutions of I^125 -labeled thyroxine from about 500,000 cpm to about 25,000 cpm.

The structures appear in SMILES notation. Where two headings read alike, the source gives them in different places.

Turning to `N[C@@H](Cc1cc(I)c(Oc2cc(I)c(O)c(I)c2)c(I)c1)C(=O)O` [thyroxine], the Kd in assay [1] (total reaction volume 0.5 ml) is 175 pM; in assay [1] (total reaction volume 1.0 ml), 167 pM; in assay [2], 1000 pM.
